Assay results as given in patent US10780061B2, “Composition comprising farnesol and use thereof” (Daegu Gyongbuk Institute of Science and Technology, priority 2014, dated 2020).

Assays:
[1] = for reference; cited from earlier work
[2] = system: Myh2a-positive muscle fibers; assay: Myh2a immunostaining of hind limb muscles, high fat diet (PGC-1α-inhibited) model; format: in vivo, mouse; settings: high fat diet with 0.5% compound, 3 months
From the text: (§1) To prepare the PGC-1α-inhibited model, 3-month-old mouse (female, body weight of 20 g) is fed with high fat diet, in which fat is increased to 60%, compared to a negative control group, for 5 days (short-term effect) or 3 months (long-term effect). The negative control group is fed with a general diet. Farnesol is mixed in the high fat diet at a content of 0.5% (weight of farnesol/weight of diet). A positive control group is fed with high fat diet containing a type II diabetes drug, metformin at a content of 0.5% (weight of metformin/weight of diet). Mice are fed with the general diet, the high fat diet, and the high fat diet containing farnesol or metformin for 3 months, and then hind limbs are removed to analyze muscle differentiation and mitochondrial enzyme activity.
In FIG. 6C, SD represents a standard diet as a negative control group, HFD represents a high fat diet, and HFD+Farnesol or HFD-metformin represents farnesol or metformin-added HFD, respectively.

SDH enzyme activity = assay: SDH staining of hind limb muscles, high fat diet model; format: in vivo, mouse; settings: high fat diet with 0.5% compound, 3 months
From the text: as §1

PARIS, PGC-1α [3] = assay: Immunoprecipitation for PGC-1α expression and PARIS-farnesylation, short-term high fat diet; format: in vivo, mouse; settings: high fat diet with 0.5% compound, 5 days, gastrocnemius muscles
From the text: as §1
The effects of high fat diet and farnesol and metformin on PGC-1α induction by PARIS-farnesylation are evaluated. To analyze effect of short-term high fat diet, mice are fed with the above conditions for 5 days. Immunoblotting of PGC-1α and PARIS in gastrocnemius muscles of the mice is performed.
In this regard, PARIS-farnesylation is normalized to the immunoprecipitated PARIS expression level.

PARIS, PGC-1α [4] = assay: Western blotting of hind limb muscles, high fat diet for 3 months; format: in vivo, mouse; settings: high fat diet with 0.5% compound
From the text: as §1

Structure (SMILES)	ID50 [1] [mg/kg]	percentage of Myh2a-postive muscle fibers [2]	percentage of muscle fibers showing increased SDH enzyme activity (SDH enzyme activity)	reduction in PARIS-farnesylation by high fat diet (PARIS, PGC-1α [3])	reduction in PGC-1α expression by high fat diet (PARIS, PGC-1α [3])	decreased PGC-1α expression by high fat diet (PARIS, PGC-1α [4])	increased PARIS level by high fat diet (PARIS, PGC-1α [4])
CC(=O)Oc1ccccc1C(=O)O [aspirin]	250						
CN(C)C(=N)N=C(N)N [metformin, reference compound]		significantly increases	increased	inhibited	inhibited	inhibited	inhibited
